In US20220396565A1 (Hoffmann-La Roche Inc., priority 2020, published 2022) one finds IC90 data, which are given here for nine compounds.

Counter-ions that a name gives are not always drawn.

The first test deals with Acinetobacter baumannii ATCC17978. Briefly: Antimicrobial susceptibility testing: 90% growth inhibitory concentration (IC90) determination, Iso-Sensitest broth. It counts as cell-based. The settings on record: 90% growth inhibitory concentration, Acinetobacter baumannii ATCC17978, Iso-Sensitest broth; read-out: ATCC 17978 IC90. A digest of the protocol: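 Growth at OD600 was monitored every 20 min for 16 h at 35±2 °C, with bacteria inoculated at ~5×10^(5) CFU/ml into Iso-Sensitest medium. Compounds were tested as 10-point twofold dilutions (e.g. 10–0.02 μM final). The 90% inhibitory concentration comes from the log-phase growth.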
With `Cc1cc(NC(=O)c2ncc(-c3ccc(OCC#N)c(F)c3F)n2C)ccc1C(=O)N1CCC(C(=O)N2CCOCC2)CC1` [Example 78, 5-(4-(cyanomethoxy)-2,3-difluorophenyl)-1-methyl-N-(3-methyl-4-(4-(morpholine-4-carbonyl)piperidine-1-carbonyl)phenyl)-1H-imidazole-2-carboxamide], the concentration for an effect of 90% (IC90) worked out at 120 nM.

As for `Cn1c(-c2ccc(OCC#N)c(F)c2F)cnc1C(=O)Nc1ccc(C(=O)N2CCC(C(=O)N3CC[C@@H](N)C3)CC2)c(Cl)c1` [Example 80, (R)-N-(4-(4-(3-aminopyrrolidine-1-carbonyl)piperidine-1-carbonyl)-3-chlorophenyl)-5-(4-(cyanomethoxy)-2,3-difluorophenyl)-1-methyl-1H-imidazole-2-carboxamide formate], the IC90 came to 70 nM.

Regarding `Cn1c(-c2ccc(OCC#N)c(F)c2F)cnc1C(=O)Nc1ccc(C(=O)N2CCC(C(=O)N3CCN[C@@H](CO)C3)CC2)c(Cl)c1` [Example 81, (R)-N-(3-chloro-4-(4-(3-(hydroxymethyl)piperazine-1-carbonyl)piperidine-1-carbonyl)phenyl)-5-(4-(cyanomethoxy)-2,3-difluorophenyl)-1-methyl-1H-imidazole-2-carboxamide 2,2,2-trifluoroacetate], the IC90 worked out at 70 nM.

For the compound `COc1ccc(-c2cnc(C(=O)Nc3ccc(C(=O)N4CCN(C(=O)CN(C)C)CC4)c(Cl)c3)n2C)c(F)c1F` [Example 104, N-[3-chloro-4-[4-[2-(dimethylamino)acetyl]piperazine-1-carbonyl]phenyl]-5-(2,3-difluoro-4-methoxy-phenyl)-1-methyl-imidazole-2-carboxamide trifluoroacetate], the IC90 was 70 nM.

Consider `CNCC(=O)N1CCN(C(=O)c2ccc(NC(=O)c3ncc(-c4ccc(OC)c(F)c4F)n3C)cc2Cl)CC1` [Example 105, N-[3-chloro-4-[4-[2-(methylamino)acetyl]piperazine-1-carbonyl]phenyl]-5-(2,3-difluoro-4-methoxy-phenyl)-1-methyl-imidazole-2-carboxamide trifluoroacetate], for which the IC90 stood at 70 nM.

`COc1ccc(-c2cnc(C(=O)Nc3ccc(C(=O)N4CCN(C(=O)[C@@H]5C[C@@H](O)CN5)CC4)c(Cl)c3)n2C)c(F)c1F` [Example 106, N-[3-chloro-4-[4-[(2S,4R)-4-hydroxypyrrolidine-2-carbonyl]piperazine-1-carbonyl]phenyl]-5-(2,3-difluoro-4-methoxy-phenyl)-1-methyl-imidazole-2-carboxamide trifluoroacetate]: the 90% effect concentration (IC90) was found to be 100 nM.

In the case of `COc1ccc(-c2cnc(C(=O)Nc3ccc(C(=O)N4CCN(C(=O)[C@@H]5C[C@H](O)CN5)CC4)c(Cl)c3)n2C)c(F)c1F` [Example 107, N-[3-chloro-4-[4-[(2S,4S)-4-hydroxypyrrolidine-2-carbonyl]piperazine-1-carbonyl]phenyl]-5-(2,3-difluoro-4-methoxy-phenyl)-1-methyl-imidazole-2-carboxamide trifluoroacetate], the IC90 turned out to be 80 nM.

`COc1ccc(-c2cnc(C(=O)Nc3ccc(C(=O)N4CCN(C(=O)C5(O)CCNCC5)CC4)c(Cl)c3)n2C)c(Cl)c1F` [Example 113, 5-(2-chloro-3-fluoro-4-methoxy-phenyl)-N-[3-chloro-4-[4-(4-hydroxypiperidine-4-carbonyl)piperazine-1-carbonyl]phenyl]-1-methyl-imidazole-2-carboxamide formate]: the IC90 came out at 80 nM.

Still in this test, the particulars now being: Acinetobacter baumannii, ATCC17978, read-out: ATCC 17978 IC90.
`Cc1cc(NC(=O)c2ncc(-c3ccc(OCC#N)c(F)c3F)n2C)ccc1C(=O)N1CCC(C(=O)N2CC(N)C2)CC1` [Example 79, N-(4-(4-(3-aminoazetidine-1-carbonyl)piperidine-l-carbonyl)-3-methylphenyl)-5-(4-(cyanomethoxy)-2,3-difluorophenyl)-1-methyl-1H-imidazole-2-carboxamide 2,2,2-trifluoroacetate]: the IC90 was found to be 210 nM.

The term IC90 denotes the point of the concentration-response curve where the effect stands at 90%.
